Experimental data as given in ChEMBL document CHEMBL3430912, “GSK Tres Cantos Anti-Kinetoplastid Screening (TCAKS) Data”.

Experiments:
Trypanosoma cruzi [1] = experiment: GSK_TCAKS: pIC50 Trypanosoma cruzi viability assay using beta-GAL activity. This assay was run at single shot at 5uM compound concentration per well. The biological reagents consisted of NIH-3T3 host cells and trypomastigotes parasitic cells; both cell types were set to a 3.3 * 10^5 cells/mL dilution in assay DMEM by means of a CASY cell counter device using a 60um capillary. 6 uL of the mixture were dispensed per well (about 1 * 10^3 host-cells and 1 * 10^3 parasites) with a Multidrop Combi dispenser. […] In all wells, the percentage of DMSO never exceeded 0.5%. Plates incubated for four days at 37C, 5% CO2. The substrate used for the assay fluorescence intensity (FLINT) readout was resorufin-beta-D-galactopiranoside (Sigma-Aldrich) at 5uM per well. It was diluted in PBS supplemented with the soft detergent Igepal (Fluka).; format: functional, organism-based, Mus musculus; settings: Tulahuen, NIH3T3
Trypanosoma cruzi [2] = experiment: (§1) GSK_TCAKS: pIC50 Trypanosoma cruzi Imaging: Infected Cells. […] Cells were then washed once with PBS before infection. T. cruzi trypomastigotes, collected at days 5 to 8 after infection from LLC-MK2 parasite infected cultures, were allowed to swim out for 4h at 37C from a centrifuged pellet (2,500 rpm/10 min/room temperature). Trypomastigotes were then collected and counted in a CASY Cell Counter. Trypomastigotes, in supplemented DMEM, were added to H9c2 cultures in a multiplicity of infection of 1 and incubated for 18 h. Cells were washed once with PBS before incubation of the infected H9c2 monolayer with trypsin (Life-Technologies) to detach cells from the flask. Cells were counted in a CASY Cell Counter using a 150 um capillary and their density set at 5 * 10^4 cells per mL in supplemented assay DMEM. Infected H9c2 were dispensed into 384-well poly-lysine coated assay plates at 50uL per well using a Multidrop Combi dispenser. After seeding them, the plates were incubated at 37C, 5% CO2 for 72h. Cultures were then fixed and stained by addition of 50 uL of a solution containing 8% formaldehyde and 4 uM DRAQ5 DNA dye (BioStatus, UK) per well. […] Five images were collected per well for reliable statistical analysis. Automated image analysis was performed with a script developed on Acapella High Content Imaging and Analysis Software (PerkinElmer). Output: percentage of infected cells per well as a second infection marker.; format: functional, organism-based, Rattus norvegicus; settings: H9c2, 4 h
Trypanosoma cruzi [3] = experiment: GSK_TCAKS: pIC50 Trypanosoma cruzi Imaging: Amastigotes/Cell. […] Cells were then washed once with PBS before infection. T. cruzi trypomastigotes, collected at days 5 to 8 after infection from LLC-MK2 parasite infected cultures, were allowed to swim out for 4h at 37C from a centrifuged pellet (2,500 rpm/10 min/room temperature). Trypomastigotes were then collected and counted in a CASY Cell Counter. Trypomastigotes, in supplemented DMEM, were added to H9c2 cultures in a multiplicity of infection of 1 and incubated for 18 h. Cells were washed once with PBS before incubation of the infected H9c2 monolayer with trypsin (Life-Technologies) to detach cells from the flask. Cells were counted in a CASY Cell Counter using a 150 um capillary and their density set at 5 * 10^4 cells per mL in supplemented assay DMEM. Infected H9c2 were dispensed into 384-well poly-lysine coated assay plates at 50uL per well using a Multidrop Combi dispenser. After seeding them, the plates were incubated at 37C, 5% CO2 for 72h. Cultures were then fixed and stained by addition of 50 uL of a solution containing 8% formaldehyde and 4 uM DRAQ5 DNA dye (BioStatus, UK) per well. […] Five images were collected per well for reliable statistical analysis. Automated image analysis was performed with a script developed on Acapella High Content Imaging and Analysis Software (PerkinElmer). Output: number of amastigotes per cell as infection level measurement.; format: functional, organism-based, Rattus norvegicus; settings: H9c2, 4 h
Trypanosoma cruzi [4] = experiment: as §1, with “H2C9” for “Trypanosoma cruzi”, “H9c2 Host Cardiomyocytes.” for “Infected Cells.”, “Number” for “percentage”, “H9c2 Host Cardiomyocytes nuclei to determine drug-related cytotoxicity.” for “infected cells per well as a second infection marker.”; format: functional, organism-based, Rattus norvegicus; settings: H9c2, 4 h
Leishmania donovani [5] = experiment: GSK_TCAKS: pIC50 Leishmania donovani viability assay using fluorescence intensity. Assay plates (1536-well) were prepared by adding 30nL per well of compound. For single shot assay, the final compound concentration was 5uM. […] Briefly, eGFP LdBOB axenic amastigotes were harvested, fixed and counted in a CASY cell counter (Roche-Applied Science). A final concentration of 1.5 * 10^5 cells per well were prepared in amastigote media containing 500 U/mL penicillin/streptomycin (Invitrogen) and 6uL was dispensed to each experimental well using a Multidrop Combi dispenser (Thermo Scientific). 6uL of assay media was dispensed to control columns used as reference for 100% compound response. Following incubation for 72 h at 37C, 5% CO2, 2 uL of resazurin was added to each well at a final concentration of 0.5 mM in phosphate buffered saline (PBS) with IGEPAL (Sigma-Aldrich), 0.05% (v/v).; format: functional, organism-based
Leishmania donovani [6] = experiment: GSK_TCAKS: pIC50 Leishmania donovani Imaging: Infected Macrophages. Assay plates (384-well) were prepared by adding 250nL of compound to each well. For single shot assay, the final compound concentration was 5 uM. […] Automated image analysis was performed with a script developed on Acapella High Content Imaging and Analysis Software (PerkinElmer). Output: Percent of infected macrophage cells were reported for each well.; format: functional, organism-based, Homo sapiens; settings: THP-1
Leishmania donovani [7] = experiment: GSK_TCAKS: pIC50 Leishmania donovani Imaging: Amastigotes/Macrophages. Assay plates (384-well) were prepared by adding 250nL of compound to each well. For single shot assay, the final compound concentration was 5 uM. […] Automated image analysis was performed with a script developed on Acapella High Content Imaging and Analysis Software (PerkinElmer). Output: Average number of amastigotes per macrophage cell were reported for each well.; format: functional, organism-based, Homo sapiens; settings: THP-1
Leishmania donovani [8] = experiment: GSK_TCAKS: pIC50 Leishmania donovani Imaging: THP-1 Host Macrophages. Assay plates (384-well) were prepared by adding 250nL of compound to each well. For single shot assay, the final compound concentration was 5 uM. […] Automated image analysis was performed with a script developed on Acapella High Content Imaging and Analysis Software (PerkinElmer). Output: THP-1 cell count were reported for each well.; format: functional, organism-based, Homo sapiens
[9] = system: Trypanosoma brucei brucei; experiment: GSK_TCAKS: pIC50 Trypanosoma brucei viability assay using fluorescence intensity. Assay plates (1536-well) were prepared by dispensing 25nL of compound solution per well using an Echo acoustic dispenser (Labcyte).; format: functional, organism-based; settings: Lister 427, 2 h
[10] = system: Trypanosoma brucei brucei; experiment: GSK_TCAKS: pIC50 Trypanosoma brucei viability assay using luminiscence. Assay plates (1536-well) were prepared. T. brucei cultures were harvested and counted in a CASY cell counter. A parasite suspension was prepared at a final concentration of 5 * 10^4 cells/mL in complete HMI9 medium and 6uL was dispensed to all wells containing compounds using a Multidrop Combi dispenser. 6uL of HMI9 media with 0.4% DMSO were dispensed to control columns. Plates were incubated for 24 h at 37C, 5% CO2 then tempered for 10 min at room temperature. ATP content was quantified by adding 4 uL of CellTiter-Glo Reagent (Promega) according to the manufacturer's instructions. Luminescence was measured using a ViewLux.; format: functional, organism-based; settings: Lister 427, CASY
[11] = GSK_TCAKS: pIC50 HepG2 human cell line viability assay using luminiscence. […] Seeding density was checked to ensure that new mono-layers were not more than 50% confluent at the time of harvesting. Cell suspension was added to 500 mL of the same medium at a final density of 1.2 * 10^5 cells/mL. This cell suspension was dispensed (25 uL, 3000 cells per well) into 384-well clear-bottom plates using a Multidrop Combi dispenser. Prior to addition of the cell suspension, the screening compounds (250 nL) were pre-dispensed into the plates with an Echo liquid handler. Plates were incubated for 48 h at 37C, 5% CO2. After incubation, plates equilibrated at room temperature for 30 min before proceeding to develop the luminescent signal. The signal developer, CellTiter-Glo Reagent, was allowed to equilibrate at room temperature for 30 min and added to the plates (25uL per well) using a Multidrop Combi dispenser. Plates were left for 10 min at room temperature for stabilization and then read using a ViewLux.; format: toxicity, cell-based
NIH3T3 = experiment: GSK_TCAKS: pIC50 NIH 3T3 cell line viability assay using luminiscence. Tissue culture surface treated assay plates (1536-well) were used. […] The 100% cells survival control was determined exposing the host-cells to a 0.5% DMSO concentration, whereas the 100% toxicity control was achieved by seeding the cells in presence of Amphotericin B at 50uM. Plates were incubated for four days at 37C, 5% CO2. The assay readout was developed by addition of 5uL of CellTiter-Glo Reagent following the manufacturer's instructions. Luminiscence was measured using a ViewLux.; format: functional, cell-based; settings: Mus musculus, NIH3T3, 96 h
[12] = target: Sterol 14-alpha demethylase (Trypanosoma cruzi (strain CL Brener), UniProt Q7Z1V1); experiment: GSK_TCAKS: pIC50 CYP51 from Trypanosoma cruzi.; format: functional
Sequence of Sterol 14-alpha demethylase (Q7Z1V1 whole entry): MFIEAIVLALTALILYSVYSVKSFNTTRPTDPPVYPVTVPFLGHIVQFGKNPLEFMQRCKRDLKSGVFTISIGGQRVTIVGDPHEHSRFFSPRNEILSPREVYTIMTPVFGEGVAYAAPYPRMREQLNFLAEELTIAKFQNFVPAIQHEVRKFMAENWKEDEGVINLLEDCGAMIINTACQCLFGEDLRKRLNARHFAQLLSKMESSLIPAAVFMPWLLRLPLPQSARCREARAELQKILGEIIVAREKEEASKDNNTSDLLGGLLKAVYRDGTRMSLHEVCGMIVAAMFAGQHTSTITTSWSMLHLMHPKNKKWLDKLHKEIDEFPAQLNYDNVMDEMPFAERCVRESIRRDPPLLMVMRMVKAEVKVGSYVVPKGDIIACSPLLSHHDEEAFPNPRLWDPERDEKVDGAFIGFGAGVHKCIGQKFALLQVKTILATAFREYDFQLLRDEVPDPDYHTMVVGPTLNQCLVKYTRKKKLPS

| Structure (SMILES) | IC50 (Trypanosoma cruzi [1]) [µM] | IC50 (Trypanosoma cruzi [2]) [µM] | IC50 (Trypanosoma cruzi [3]) [µM] | IC50 (Trypanosoma cruzi [4]) [µM] | IC50 (Leishmania donovani [5]) [µM] | IC50 (Leishmania donovani [6]) [µM] | IC50 (Leishmania donovani [7]) [µM] | IC50 (Leishmania donovani [8]) [µM] | IC50 [9] [µM] | IC50 [10] [µM] | IC50 at 48 h [11] [µM] | IC50 (NIH3T3) [µM] | IC50 [12] [µM] |
| --- | --- | --- | --- | --- | --- | --- | --- | --- | --- | --- | --- | --- | --- |
| O=C(c1cnn(-c2ccccc2)n1)N1CCCC(n2ccnc2)C1 (stereo not given) | 0.0562 | 0.0794 | 0.0631 | > 50.1 | 7.94 | > 50.1 | 0.631 | > 50.1 | > 39.8 | 31.6 | > 100 | 20 | 0.0794 |
| COc1cccc(CCNC(=O)C(c2cn[nH]c2)N2CCN(c3ccc(Cl)cc3)CC2)c1 (stereo not given) | 0.02 | 0.02 | 0.0158 | 39.8 | 12.6 | 20 | 10 | 25.1 | 20 | 31.6 | 50.1 | 31.6 | 0.0631 |
| Cn1nc([N+](=O)[O-])nc1Oc1ccc(C(=O)c2ccccc2)cc1 | 0.251 | 0.316 | 0.126 | > 50.1 | > 50.1 | > 50.1 | > 50.1 | > 50.1 | 20 | > 39.8 | > 100 | > 50.1 | > 100 |
| O=c1[nH]c(C=Cc2cccc(OCCOc3ccccc3)c2)nc(O)c1[N+](=O)[O-] | 0.794 | 0.2 | 0.158 | > 50.1 | > 50.1 | > 50.1 | > 50.1 | > 50.1 | 10 | 10 | > 100 | > 50.1 | > 100 |
| COc1ccc(-c2ccc3nnc(-c4ccc(O)c(OC)c4)n3c2)cn1 | 1.26 | 3.16 | 2 | > 50.1 | 3.98 | > 50.1 | > 50.1 | > 50.1 | 2 | 2.51 | > 100 | 50.1 | > 100 |
| Cn1nccc1-c1cc(OC(CN)c2ccccc2)cnc1-c1ccco1 (stereo not given) | 0.398 | 0.1 | 0.1 | > 50.1 | > 50.1 | > 50.1 | 31.6 | 15.8 | 12.6 | 15.8 | 50.1 | 20 | 0.0631 |
| COc1ccc2c(Cl)c(C(=O)N3CCC3)sc2c1Cl | 0.447 | 2.51 | 0.794 | > 50.1 | > 50.1 | > 50.1 | > 50.1 | > 50.1 | 20 | > 39.8 | > 100 | > 50.1 | > 100 |
| O=S(=O)(NCC(c1cccnc1)N1CCN(c2ccc(F)cc2)CC1)c1cccs1 (stereo not given) | 0.158 | 0.126 | 0.126 | > 50.1 | > 50.1 | > 50.1 | > 50.1 | > 50.1 | > 39.8 | > 39.8 | > 100 | > 50.1 | 0.0398 |
| O=C(NCCc1n[nH]c(-c2ccc(F)c(F)c2)n1)C1CCCCC1 | 2 | 2.51 | 1.58 | > 50.1 | > 50.1 | > 50.1 | 15.8 | 20 | 0.501 | 1 | > 100 | > 50.1 | 25.1 |
| COc1ccc(CN(C)Cc2ccncc2)cc1-c1ccc(S(=O)(=O)NC2CCC2)s1 | 0.501 | 0.631 | 0.501 | 10 | 39.8 | > 50.1 | 15.8 | 20 | > 39.8 | 20 | > 100 | 25.1 | 0.0794 |
